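96-well plates; 48 h exposure; 5 concentrations. Endpoints by linear interpolation between flanking doses. Not reached: highest tested concentration assigned. At the GI50, growth is halved. TGI: total growth inhibition.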

What all share (experiment): NCI anticancer screen, dose series, 48 h
For assay [1], the system named is K-562 leukemia.
The subject of assay [2] is TK-10 renal.
In assay [3] the test system is A498 renal.
For assay [4], the system named is HCT-116 colon.
Assay [5] has as its system DU-145 prostate.
In assay [6] the test system is COLO 205 colon.
Assay [7] relates to UACC-257 melanoma.
Assay [8] concerns OVCAR-8 ovarian.
The subject of assay [9] is BT-549 breast.
Assay [10] deals with HCC-2998 colon.

For the compound `Cc1ccc(SC2=CC(=O)c3nc4ccccc4c4ccnc2c34)cc1`, the GI50 in [1] was 35.5 µM; in assay [2] it was 53.6 µM; in [3], > 100 µM; in assay [4], 22.7 µM; in [5], 43 µM; in [6], 39.4 µM. In addition, the GI50 is 24.7 µM in assay [7], 18 µM in assay [8], > 62.9 µM in [9] and > 67.8 µM in [10]. The TGI in [1] is > 100 µM; in assay [2], > 100 µM; in assay [3], > 100 µM; in [4], > 56.8 µM; in assay [5], > 67.4 µM; in assay [6], > 85.6 µM. Also, the TGI in assay [7] was 77.7 µM; in assay [8], 41.2 µM; in assay [9], > 100 µM; in assay [10] it was > 100 µM.
As to `C=C(c1ccc(C(=O)N(C)c2ccccc2N)cc1)C(C)N1C(=O)[C@H]2CCCN2C(=O)c2ccccc21` (some centres not stated), the GI50 is 19.3 µM in assay [1]; 45.5 µM in assay [2]; 19.2 µM in [3]; 19.8 µM in assay [4]; 33.3 µM in [5]; 24 µM in assay [6]. In addition, the GI50 was 34.7 µM in assay [7], 43.7 µM in assay [8], > 100 µM in assay [9] and 23.6 µM in [10]. Further, the TGI in assay [1] was > 100 µM; in assay [2] it was > 100 µM; in [3], 67.5 µM; in assay [4], > 100 µM; in [5] it was > 100 µM; in assay [6], > 100 µM. Besides, the TGI in assay [7], in assay [8], in [9] and in assay [10] was > 100 µM in each case.
As for `C/C(=N\N=C(/[Se])N1CC2CCC(CC2)C1)c1ccccn1`, the TGI in [1] turned out to be 0.575 µM; in assay [2] it was 3.7 µM; in assay [3] it was 1.31 µM; in assay [4], 0.878 µM; in assay [5], 1.68 µM; in assay [6], 0.063 µM. The TGI in [7] was determined as 0.569 µM; in assay [8], 2.34 µM; in assay [9], 1.63 µM; in [10], 1.5 µM.
For `O=C(O)c1ccc(N/C=C2\C(=O)c3ccccc3OC2O)cc1O` (configuration not stated), the GI50 in [1] was 16 µg/mL; in [2] it was 36 µg/mL; in assay [3] it was 36.9 µg/mL; in assay [4], 17.9 µg/mL; in assay [5], 22.7 µg/mL; in assay [6] it was 30.5 µg/mL. Moreover, the GI50 was 28.9 µg/mL in [7], 22 µg/mL in assay [8], 19 µg/mL in assay [9] and 24.1 µg/mL in [10]. Further, the TGI in [1] stood at 87.2 µg/mL; in assay [2], 106 µg/mL; in [3], 83.9 µg/mL; in assay [4], 42.7 µg/mL; in [5], 65.6 µg/mL; in assay [6] it was 76.4 µg/mL. Also, the TGI in assay [7] stood at 93.1 µg/mL; in assay [8], 97.2 µg/mL; in [9] it was 71.2 µg/mL; in [10] it was 45.4 µg/mL.
`O=C(c1ccco1)c1c(C(F)(F)F)n([O-])c2ccccc2[n+]1=O`: the GI50 is 0.207 µM in assay [1]; 1.49 µM in assay [2]; 1.57 µM in [3]; 0.434 µM in assay [4]; 0.367 µM in [5]; 3.32 µM in assay [6]. Moreover, the values for the GI50 in assay [7], in [8] and in assay [9] were 4.32 µM, 1.23 µM and 1.31 µM, respectively. Besides, the TGI in assay [1] was found to be 3.43 µM; in [2], 6.7 µM; in assay [3] it was 8.27 µM; in assay [4], 8.52 µM; in [5] it was 0.969 µM; in assay [6] it was 28.5 µM. Also, the TGI in [7] was found to be 14.7 µM; in [8] it was 22.5 µM; in [9], 3.81 µM.
Regarding `COc1cccc(/C=C/c2cnc3ccccc3n2)c1OC`, the TGI in assay [1], in assay [2], in [3], in [4], in assay [5] and in assay [6] was > 100 µM in each case. Also, the TGI in assay [7] was > 100 µM; in [8], > 100 µM; in [9] it was 53.1 µM.
On to `Cc1ccc2c(c1)NC(=O)CC(c1ccccc1)=N2`, for which the TGI in [1] is 26.7 µM; in assay [2], > 100 µM; in assay [3] it was > 100 µM; in assay [4] it was > 100 µM; in assay [5], > 100 µM; in assay [7], > 100 µM. Besides, the TGI in [8], in [9] and in assay [10] was > 100 µM each time.
For the compound `O=C(Nc1ccc(Cl)cc1)c1cc(-c2ccc(Cl)cc2)c2sc(=O)[nH]c2n1`, the GI50 in assay [1] is 1.27 µM; in assay [3] it was 0.472 µM; in assay [4], 2.4 µM; in assay [5], 3.31 µM; in assay [6] it was 1.63 µM; in assay [7] it was 1.19 µM. The GI50 was 2.04 µM in assay [8], 2.08 µM in assay [9] and 2.17 µM in assay [10]. For the same compound, the TGI was > 100 µM in assay [1]; 3.42 µM in [3]; 10.8 µM in assay [4]; 26.5 µM in [5]; 3.54 µM in [6]; 4.69 µM in assay [7]. Also, the results for the TGI in [8], in assay [9] and in [10] were 12.8 µM, 6.88 µM and 14.5 µM, respectively.
As to `O=C(N/N=C/c1ccc([N+](=O)[O-])cc1)c1ccc2nc(-c3ccc(Cl)cc3)[nH]c2c1`, the GI50 was 0.499 µM in assay [1]; 8.99 µM in assay [2]; 2.39 µM in assay [3]; 2.25 µM in [4]; 3.99 µM in assay [5]; 3.37 µM in [7]. Moreover, the GI50 in assay [8] was 2.89 µM; in assay [9], 2.84 µM; in assay [10] it was 1.48 µM. Besides, the TGI is 8.44 µM in assay [1]; 42.3 µM in assay [2]; 7.75 µM in assay [3]; 6.9 µM in assay [4]; 21.4 µM in assay [5]; 15.4 µM in assay [7]. Further, the values for the TGI in assay [8], in assay [9] and in [10] were 13.7 µM, 9.71 µM and 4.81 µM, respectively.

Values taken from PubChem BioAssay (NCI).
